Target: WT A/M2 protein (Influenza A virus, UniProt P0DOF5)
Test: biochemical
Settings: read-out: % WT inhibition

WT A/M2 protein, sequence (P0DOF5 whole entry): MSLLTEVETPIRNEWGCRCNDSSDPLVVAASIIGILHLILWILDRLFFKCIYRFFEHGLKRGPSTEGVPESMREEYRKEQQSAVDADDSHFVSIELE

Compound | inhibition at 100 µM [%]
c1ccc(-c2nc(CNC34CC5CC(CC(C5)C3)C4)cs2)cc1 [26i] | 0
Oc1ccc(NC23CC4CC(CC(C4)C2)C3)c(O)c1 [compound 5] | 64

Reference: PMC4829348 (Journal of medicinal chemistry, 2016)
